# From patent publication US20240261243A1, “NITRIC OXIDE DONORS, COMPOSITIONS, AND METHODS OF USE” (priority 2020, published 2024)
# Test system: P. aeruginosa (PAK)
# Test: Time-kill assay in CAMHB at 37° C.
# Assay type: cell-based, Pseudomonas aeruginosa
# Conditions: 4 mg/ml BIOC76 alone, broth
# Method: In this study, we established the viability of P. aeruginosa in a broth at 37° C. when exposed to BIOC76 alone compared to BIOC76+gallium citrate. […] To conduct this experiment, we suspended P. aeruginosa (PAK) in CAMHB to a final concentration of 10^6 CFU/ml. Bacteria were exposed to BIOC76, GaCi, or BIOC76+GaCi and incubated at 37° C.
smiles,measurement,value
O=NN(O)N(CCO)CC1OC2OC3C(CN(CCO)N(O)N=O)OC(OC4C(CN(CCO)N(O)N=O)OC(OC5C(CN(CCO)N(O)N=O)OC(OC6C(CN(CCO)N(O)N=O)OC(OC7C(CN(CCO)N(O)N=O)OC(OC8C(CN(CCO)N(O)N=O)OC(OC1C(O)C2O)C(O)C8O)C(O)C7O)C(O)C6O)C(O)C5O)C(O)C4O)C(O)C3O (stereo not shown) [BIOC76],bacterial survival over 24 h,can recover after 24 h
